# Laboratory results reported in ChEMBL document CHEMBL5465560, “Selectivity Literature for EUbOPEN Chemogenomic Library” (2024).
# What was measured:
# [1] = biological target: Mitogen-activated protein kinase kinase kinase 10 (Homo sapiens) (UniProt Q02779); test: Selectivity interaction (Ambit KINOMEscan and KiNATiv profiling in Jurkat cells) EUB0000090b MAP3K10; format: cell-based; details: at 1 µM
# [2] = biological target: T1, Serine/threonine-protein kinase Chk1 (Homo sapiens) (UniProt O14757); test: Selectivity interaction (KinomeScan (DiscoverX)) EUB0001079a CHEK1; details: at 1 µM
# T1 sequence (whole entry): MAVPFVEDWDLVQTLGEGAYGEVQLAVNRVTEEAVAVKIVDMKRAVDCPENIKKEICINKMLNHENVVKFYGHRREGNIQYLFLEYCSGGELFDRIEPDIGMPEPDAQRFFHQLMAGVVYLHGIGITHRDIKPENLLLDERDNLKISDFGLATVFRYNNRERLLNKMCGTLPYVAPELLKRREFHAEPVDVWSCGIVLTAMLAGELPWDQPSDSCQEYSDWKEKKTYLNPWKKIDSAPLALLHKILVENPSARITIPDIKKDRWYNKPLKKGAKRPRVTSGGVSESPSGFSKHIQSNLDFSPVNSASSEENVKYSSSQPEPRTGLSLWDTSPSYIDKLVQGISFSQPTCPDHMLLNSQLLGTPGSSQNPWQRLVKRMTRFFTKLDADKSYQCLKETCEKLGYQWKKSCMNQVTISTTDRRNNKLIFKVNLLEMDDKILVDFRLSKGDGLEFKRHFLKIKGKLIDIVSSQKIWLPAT
# [3] = biological target: T2, Serine/threonine-protein kinase Nek9 (Homo sapiens) (UniProt Q8TD19); test: Selectivity interaction (ActivX KiNativ screen (ex vivo kinase selectivity in human PBMCs)) EUB0001619a NEK9; format: cell-based; details: PBMC, at 1 µM
# T2 sequence (whole entry): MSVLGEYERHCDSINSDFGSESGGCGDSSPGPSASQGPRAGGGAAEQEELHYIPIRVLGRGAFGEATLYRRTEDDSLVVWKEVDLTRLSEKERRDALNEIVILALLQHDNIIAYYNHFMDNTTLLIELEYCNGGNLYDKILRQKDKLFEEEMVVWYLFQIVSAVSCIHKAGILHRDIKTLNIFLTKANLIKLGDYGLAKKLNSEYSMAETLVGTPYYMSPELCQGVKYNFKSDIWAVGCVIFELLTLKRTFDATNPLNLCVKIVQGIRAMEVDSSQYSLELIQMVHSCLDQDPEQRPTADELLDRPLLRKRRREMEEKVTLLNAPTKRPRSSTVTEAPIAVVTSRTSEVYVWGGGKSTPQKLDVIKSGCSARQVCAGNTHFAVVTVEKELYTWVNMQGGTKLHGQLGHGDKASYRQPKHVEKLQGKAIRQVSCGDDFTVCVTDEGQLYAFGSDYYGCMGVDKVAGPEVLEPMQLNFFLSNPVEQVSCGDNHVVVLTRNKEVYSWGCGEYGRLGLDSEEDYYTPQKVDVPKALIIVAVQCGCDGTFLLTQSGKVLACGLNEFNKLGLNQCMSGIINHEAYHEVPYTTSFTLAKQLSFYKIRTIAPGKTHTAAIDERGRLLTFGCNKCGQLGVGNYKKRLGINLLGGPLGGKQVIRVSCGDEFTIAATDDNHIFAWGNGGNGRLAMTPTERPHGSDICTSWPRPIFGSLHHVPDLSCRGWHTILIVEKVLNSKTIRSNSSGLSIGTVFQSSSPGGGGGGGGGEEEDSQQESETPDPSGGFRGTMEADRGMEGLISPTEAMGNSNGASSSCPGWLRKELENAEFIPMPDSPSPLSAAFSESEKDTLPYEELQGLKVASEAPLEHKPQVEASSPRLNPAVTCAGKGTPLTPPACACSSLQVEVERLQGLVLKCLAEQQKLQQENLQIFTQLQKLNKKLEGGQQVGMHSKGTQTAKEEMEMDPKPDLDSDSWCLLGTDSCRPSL
# [4] = biological target: T3, Dual specificity protein kinase TTK (Homo sapiens) (UniProt P33981); test: Selectivity interaction (KinomeScan (DiscoverX)) EUB0000229b TTK; details: at 10 µM
# T3 sequence (whole entry): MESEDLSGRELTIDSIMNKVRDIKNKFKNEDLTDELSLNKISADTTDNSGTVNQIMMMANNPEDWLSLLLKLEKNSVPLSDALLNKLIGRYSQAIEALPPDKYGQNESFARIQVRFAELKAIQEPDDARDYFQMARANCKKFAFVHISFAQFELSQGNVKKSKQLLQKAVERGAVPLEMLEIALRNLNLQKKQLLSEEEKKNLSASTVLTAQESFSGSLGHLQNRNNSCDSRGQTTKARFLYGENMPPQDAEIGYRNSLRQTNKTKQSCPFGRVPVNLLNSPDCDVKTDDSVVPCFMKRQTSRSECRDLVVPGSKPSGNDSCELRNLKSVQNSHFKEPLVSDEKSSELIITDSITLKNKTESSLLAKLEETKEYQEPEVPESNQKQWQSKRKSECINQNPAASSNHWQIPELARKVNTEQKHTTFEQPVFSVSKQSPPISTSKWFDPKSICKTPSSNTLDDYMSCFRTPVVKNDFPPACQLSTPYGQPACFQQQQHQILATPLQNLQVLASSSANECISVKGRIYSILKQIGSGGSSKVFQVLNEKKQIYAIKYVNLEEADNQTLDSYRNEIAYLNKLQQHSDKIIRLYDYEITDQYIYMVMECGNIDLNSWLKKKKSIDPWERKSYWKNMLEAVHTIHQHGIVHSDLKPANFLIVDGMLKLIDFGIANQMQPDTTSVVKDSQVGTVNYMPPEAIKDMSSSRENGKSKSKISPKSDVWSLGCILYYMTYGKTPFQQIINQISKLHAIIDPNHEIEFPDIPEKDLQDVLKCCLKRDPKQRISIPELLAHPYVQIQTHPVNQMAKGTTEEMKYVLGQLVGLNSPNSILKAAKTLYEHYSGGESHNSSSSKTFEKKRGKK
# Sequence of Mitogen-activated protein kinase kinase kinase 10 (Homo sapiens) (Q02779 whole entry, looked up): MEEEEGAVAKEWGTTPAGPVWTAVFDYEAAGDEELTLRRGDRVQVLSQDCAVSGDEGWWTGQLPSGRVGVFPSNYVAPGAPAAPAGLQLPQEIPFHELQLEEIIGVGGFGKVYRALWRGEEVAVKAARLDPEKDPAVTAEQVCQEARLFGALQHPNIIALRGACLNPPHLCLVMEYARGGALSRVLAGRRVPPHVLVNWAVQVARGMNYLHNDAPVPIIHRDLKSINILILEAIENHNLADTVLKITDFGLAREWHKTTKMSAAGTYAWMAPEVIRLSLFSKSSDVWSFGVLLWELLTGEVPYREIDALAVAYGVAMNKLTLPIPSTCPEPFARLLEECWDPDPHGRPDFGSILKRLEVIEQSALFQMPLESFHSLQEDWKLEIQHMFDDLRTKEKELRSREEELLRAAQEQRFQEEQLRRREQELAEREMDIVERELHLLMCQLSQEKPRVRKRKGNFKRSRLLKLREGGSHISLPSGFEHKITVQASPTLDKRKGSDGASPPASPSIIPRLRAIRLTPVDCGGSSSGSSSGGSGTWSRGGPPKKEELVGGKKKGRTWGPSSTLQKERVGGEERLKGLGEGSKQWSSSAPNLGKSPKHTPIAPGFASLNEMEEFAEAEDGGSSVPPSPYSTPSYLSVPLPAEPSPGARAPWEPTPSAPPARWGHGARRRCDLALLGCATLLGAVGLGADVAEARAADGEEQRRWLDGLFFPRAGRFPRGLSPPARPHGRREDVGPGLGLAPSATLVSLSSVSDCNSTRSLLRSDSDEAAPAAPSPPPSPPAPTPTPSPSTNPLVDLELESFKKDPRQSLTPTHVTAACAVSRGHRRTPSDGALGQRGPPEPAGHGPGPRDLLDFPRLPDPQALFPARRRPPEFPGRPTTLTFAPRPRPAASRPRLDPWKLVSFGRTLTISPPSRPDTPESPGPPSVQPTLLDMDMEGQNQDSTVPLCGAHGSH
smiles,measurement,setting,value
CN(C)C/C=C/C(=O)Nc1ccc(C(=O)N2CCCC(Nc3ncc(Cl)c(-c4c[nH]c5ccccc45)n3)C2)cc1 (centres undefined),% of control,[1],100%
Nc1cnc(N2CCc3cc(S(=O)(=O)Nc4c(F)cc(Cl)cc4F)cc(N4CCCC4=O)c32)nc1 [TP-020n],% of control,[2],95%
N#Cc1cccc(-c2c[nH]c3ncnc(N4CCOCC4)c23)c1,% of inhibition,[3],-16%
COc1cc(N(C)c2ccnc3ccc(C(F)(F)F)cc23)cc(OC)c1OC,% binding,[4],60%
